According to the OligoGym collection:
Oligonucleotides are given in HELM: sugar(base)linkage, 5' to 3'; d 2'-deoxyribose, r ribose, m 2'-O-methylribose, p phosphate. ss, as = sense and antisense strand

The substances below were run against Mmp7 (rat) (assay: reporter assay of Huesken 2005). Conditions: siRNA.
Note: test concentration or dose not given here.

Question: How did the normalised inhibition (eCFP-eYFP dual reporter) turn out when “RNA1{r(A)p.r(C)p.r(C)p.r(G)p.r(G)p.r(G)p.r(G)p.r(C)p.r(C)p.r(A)p.r(G)p.r(G)p.r(C)p.r(C)p.r(U)p.r(C)p.r(G)p.r(G)p.r(C)p.d(T)p.d(T)}|RNA2{r(G)p.r(C)p.r(C)p.r(G)p.r(A)p.r(G)p.r(G)p.r(C)p.r(C)p.r(U)p.r(G)p.r(G)p.r(C)p.r(C)p.r(C)p.r(C)p.r(G)p.r(G)p.r(U)p.d(G)p.d(C)}$$$RNA1{StrandType:ss}|RNA2{StrandType:as}$” was run?
Answer: 11%

Question: For “RNA1{r(A)p.r(C)p.r(U)p.r(C)p.r(A)p.r(G)p.r(G)p.r(C)p.r(G)p.r(U)p.r(G)p.r(A)p.r(A)p.r(C)p.r(U)p.r(U)p.r(C)p.r(C)p.r(U)p.d(T)p.d(T)}|RNA2{r(A)p.r(G)p.r(G)p.r(A)p.r(A)p.r(G)p.r(U)p.r(U)p.r(C)p.r(A)p.r(C)p.r(G)p.r(C)p.r(C)p.r(U)p.r(G)p.r(A)p.r(G)p.r(U)p.d(C)p.d(C)}$$$RNA1{StrandType:ss}|RNA2{StrandType:as}$”, which normalised inhibition (eCFP-eYFP dual reporter) is on record?
Answer: 73.1%

Question: Which normalised inhibition (eCFP-eYFP dual reporter) does the source give for “RNA1{r(A)p.r(C)p.r(U)p.r(C)p.r(U)p.r(C)p.r(U)p.r(G)p.r(G)p.r(G)p.r(U)p.r(C)p.r(U)p.r(G)p.r(G)p.r(G)p.r(U)p.r(C)p.r(A)p.d(T)p.d(T)}|RNA2{r(U)p.r(G)p.r(A)p.r(C)p.r(C)p.r(C)p.r(A)p.r(G)p.r(A)p.r(C)p.r(C)p.r(C)p.r(A)p.r(G)p.r(A)p.r(G)p.r(A)p.r(G)p.r(U)p.d(G)p.d(G)}$$$RNA1{StrandType:ss}|RNA2{StrandType:as}$” here?
Answer: 61.8%

Question: Which normalised inhibition (eCFP-eYFP dual reporter) does the source give for “RNA1{r(A)p.r(C)p.r(U)p.r(C)p.r(U)p.r(U)p.r(C)p.r(U)p.r(G)p.r(U)p.r(U)p.r(C)p.r(C)p.r(C)p.r(A)p.r(G)p.r(U)p.r(U)p.r(C)p.d(T)p.d(T)}|RNA2{r(G)p.r(A)p.r(A)p.r(C)p.r(U)p.r(G)p.r(G)p.r(G)p.r(A)p.r(A)p.r(C)p.r(A)p.r(G)p.r(A)p.r(A)p.r(G)p.r(A)p.r(G)p.r(U)p.d(G)p.d(A)}$$$RNA1{StrandType:ss}|RNA2{StrandType:as}$” here?
Answer: 81.4%

Question: With “RNA1{r(A)p.r(C)p.r(U)p.r(G)p.r(G)p.r(A)p.r(C)p.r(G)p.r(G)p.r(A)p.r(U)p.r(G)p.r(G)p.r(U)p.r(G)p.r(A)p.r(G)p.r(G)p.r(A)p.d(T)p.d(T)}|RNA2{r(U)p.r(C)p.r(C)p.r(U)p.r(C)p.r(A)p.r(C)p.r(C)p.r(A)p.r(U)p.r(C)p.r(C)p.r(G)p.r(U)p.r(C)p.r(C)p.r(A)p.r(G)p.r(U)p.d(A)p.d(C)}$$$RNA1{StrandType:ss}|RNA2{StrandType:as}$” as the substance, how does the normalised inhibition (eCFP-eYFP dual reporter) read?
Answer: 46.5%

Question: Which normalised inhibition (eCFP-eYFP dual reporter) does the source give for “RNA1{r(A)p.r(C)p.r(U)p.r(U)p.r(C)p.r(A)p.r(G)p.r(U)p.r(C)p.r(U)p.r(U)p.r(A)p.r(C)p.r(A)p.r(A)p.r(A)p.r(G)p.r(G)p.r(A)p.d(T)p.d(T)}|RNA2{r(U)p.r(C)p.r(C)p.r(U)p.r(U)p.r(U)p.r(G)p.r(U)p.r(A)p.r(A)p.r(G)p.r(A)p.r(C)p.r(U)p.r(G)p.r(A)p.r(A)p.r(G)p.r(U)p.d(C)p.d(T)}$$$RNA1{StrandType:ss}|RNA2{StrandType:as}$” here?
Answer: 112%

Question: With “RNA1{r(A)p.r(G)p.r(A)p.r(A)p.r(G)p.r(U)p.r(G)p.r(A)p.r(C)p.r(C)p.r(G)p.r(C)p.r(A)p.r(C)p.r(U)p.r(U)p.r(C)p.r(A)p.r(G)p.d(T)p.d(T)}|RNA2{r(C)p.r(U)p.r(G)p.r(A)p.r(A)p.r(G)p.r(U)p.r(G)p.r(C)p.r(G)p.r(G)p.r(U)p.r(C)p.r(A)p.r(C)p.r(U)p.r(U)p.r(C)p.r(U)p.d(C)p.d(C)}$$$RNA1{StrandType:ss}|RNA2{StrandType:as}$” as the substance, how does the normalised inhibition (eCFP-eYFP dual reporter) read?
Answer: 32.9%

Question: For “RNA1{r(A)p.r(G)p.r(A)p.r(A)p.r(U)p.r(U)p.r(C)p.r(U)p.r(C)p.r(A)p.r(C)p.r(U)p.r(A)p.r(A)p.r(U)p.r(G)p.r(C)p.r(C)p.r(A)p.d(T)p.d(T)}|RNA2{r(U)p.r(G)p.r(G)p.r(C)p.r(A)p.r(U)p.r(U)p.r(A)p.r(G)p.r(U)p.r(G)p.r(A)p.r(G)p.r(A)p.r(A)p.r(U)p.r(U)p.r(C)p.r(U)p.d(G)p.d(C)}$$$RNA1{StrandType:ss}|RNA2{StrandType:as}$”, which normalised inhibition (eCFP-eYFP dual reporter) is on record?
Answer: 107%

Question: “RNA1{r(A)p.r(G)p.r(A)p.r(C)p.r(A)p.r(U)p.r(C)p.r(A)p.r(U)p.r(A)p.r(A)p.r(U)p.r(U)p.r(G)p.r(G)p.r(C)p.r(U)p.r(U)p.r(C)p.d(T)p.d(T)}|RNA2{r(G)p.r(A)p.r(A)p.r(G)p.r(C)p.r(C)p.r(A)p.r(A)p.r(U)p.r(U)p.r(A)p.r(U)p.r(G)p.r(A)p.r(U)p.r(G)p.r(U)p.r(C)p.r(U)p.d(G)p.d(C)}$$$RNA1{StrandType:ss}|RNA2{StrandType:as}$” was tested. Which normalised inhibition (eCFP-eYFP dual reporter) did it give?
Answer: 99.4%

Question: With “RNA1{r(A)p.r(G)p.r(G)p.r(C)p.r(C)p.r(U)p.r(C)p.r(G)p.r(G)p.r(C)p.r(G)p.r(G)p.r(A)p.r(G)p.r(A)p.r(U)p.r(G)p.r(C)p.r(U)p.d(T)p.d(T)}|RNA2{r(A)p.r(G)p.r(C)p.r(A)p.r(U)p.r(C)p.r(U)p.r(C)p.r(C)p.r(G)p.r(C)p.r(C)p.r(G)p.r(A)p.r(G)p.r(G)p.r(C)p.r(C)p.r(U)p.d(G)p.d(G)}$$$RNA1{StrandType:ss}|RNA2{StrandType:as}$” as the substance, how does the normalised inhibition (eCFP-eYFP dual reporter) read?
Answer: 68.5%

Question: How did the normalised inhibition (eCFP-eYFP dual reporter) turn out when “RNA1{r(A)p.r(G)p.r(G)p.r(C)p.r(G)p.r(C)p.r(A)p.r(G)p.r(A)p.r(A)p.r(U)p.r(U)p.r(A)p.r(U)p.r(C)p.r(U)p.r(U)p.r(A)p.r(G)p.d(T)p.d(T)}|RNA2{r(C)p.r(U)p.r(A)p.r(A)p.r(G)p.r(A)p.r(U)p.r(A)p.r(A)p.r(U)p.r(U)p.r(C)p.r(U)p.r(G)p.r(C)p.r(G)p.r(C)p.r(C)p.r(U)p.d(G)p.d(T)}$$$RNA1{StrandType:ss}|RNA2{StrandType:as}$” was run?
Answer: 66%

Question: For “RNA1{r(A)p.r(G)p.r(G)p.r(C)p.r(G)p.r(U)p.r(G)p.r(A)p.r(A)p.r(C)p.r(U)p.r(U)p.r(C)p.r(C)p.r(U)p.r(G)p.r(U)p.r(U)p.r(U)p.d(T)p.d(T)}|RNA2{r(A)p.r(A)p.r(A)p.r(C)p.r(A)p.r(G)p.r(G)p.r(A)p.r(A)p.r(G)p.r(U)p.r(U)p.r(C)p.r(A)p.r(C)p.r(G)p.r(C)p.r(C)p.r(U)p.d(G)p.d(A)}$$$RNA1{StrandType:ss}|RNA2{StrandType:as}$”, which normalised inhibition (eCFP-eYFP dual reporter) is on record?
Answer: 91.1%

Question: With “RNA1{r(A)p.r(G)p.r(G)p.r(G)p.r(G)p.r(A)p.r(G)p.r(A)p.r(U)p.r(C)p.r(A)p.r(C)p.r(G)p.r(G)p.r(A)p.r(G)p.r(A)p.r(C)p.r(A)p.d(T)p.d(T)}|RNA2{r(U)p.r(G)p.r(U)p.r(C)p.r(U)p.r(C)p.r(C)p.r(G)p.r(U)p.r(G)p.r(A)p.r(U)p.r(C)p.r(U)p.r(C)p.r(C)p.r(C)p.r(C)p.r(U)p.d(T)p.d(G)}$$$RNA1{StrandType:ss}|RNA2{StrandType:as}$” as the substance, how does the normalised inhibition (eCFP-eYFP dual reporter) read?
Answer: 102%

Question: With “RNA1{r(A)p.r(G)p.r(U)p.r(A)p.r(C)p.r(U)p.r(G)p.r(G)p.r(A)p.r(C)p.r(G)p.r(G)p.r(A)p.r(U)p.r(G)p.r(G)p.r(U)p.r(G)p.r(A)p.d(T)p.d(T)}|RNA2{r(U)p.r(C)p.r(A)p.r(C)p.r(C)p.r(A)p.r(U)p.r(C)p.r(C)p.r(G)p.r(U)p.r(C)p.r(C)p.r(A)p.r(G)p.r(U)p.r(A)p.r(C)p.r(U)p.d(C)p.d(A)}$$$RNA1{StrandType:ss}|RNA2{StrandType:as}$” as the substance, how does the normalised inhibition (eCFP-eYFP dual reporter) read?
Answer: 90.5%

Question: For “RNA1{r(A)p.r(G)p.r(U)p.r(C)p.r(U)p.r(U)p.r(A)p.r(C)p.r(A)p.r(A)p.r(A)p.r(G)p.r(G)p.r(A)p.r(C)p.r(G)p.r(A)p.r(C)p.r(A)p.d(T)p.d(T)}|RNA2{r(U)p.r(G)p.r(U)p.r(C)p.r(G)p.r(U)p.r(C)p.r(C)p.r(U)p.r(U)p.r(U)p.r(G)p.r(U)p.r(A)p.r(A)p.r(G)p.r(A)p.r(C)p.r(U)p.d(G)p.d(A)}$$$RNA1{StrandType:ss}|RNA2{StrandType:as}$”, which normalised inhibition (eCFP-eYFP dual reporter) is on record?
Answer: 98.7%

Question: With “RNA1{r(A)p.r(G)p.r(U)p.r(G)p.r(C)p.r(A)p.r(G)p.r(U)p.r(G)p.r(G)p.r(A)p.r(C)p.r(A)p.r(A)p.r(A)p.r(C)p.r(U)p.r(G)p.r(A)p.d(T)p.d(T)}|RNA2{r(U)p.r(C)p.r(A)p.r(G)p.r(U)p.r(U)p.r(U)p.r(G)p.r(U)p.r(C)p.r(C)p.r(A)p.r(C)p.r(U)p.r(G)p.r(C)p.r(A)p.r(C)p.r(U)p.d(G)p.d(G)}$$$RNA1{StrandType:ss}|RNA2{StrandType:as}$” as the substance, how does the normalised inhibition (eCFP-eYFP dual reporter) read?
Answer: 110%

Question: How did the normalised inhibition (eCFP-eYFP dual reporter) turn out when “RNA1{r(A)p.r(G)p.r(U)p.r(G)p.r(C)p.r(C)p.r(A)p.r(G)p.r(A)p.r(U)p.r(G)p.r(U)p.r(U)p.r(G)p.r(C)p.r(A)p.r(G)p.r(A)p.r(A)p.d(T)p.d(T)}|RNA2{r(U)p.r(U)p.r(C)p.r(U)p.r(G)p.r(C)p.r(A)p.r(A)p.r(C)p.r(A)p.r(U)p.r(C)p.r(U)p.r(G)p.r(G)p.r(C)p.r(A)p.r(C)p.r(U)p.d(C)p.d(C)}$$$RNA1{StrandType:ss}|RNA2{StrandType:as}$” was run?
Answer: 115%

Question: How did the normalised inhibition (eCFP-eYFP dual reporter) turn out when “RNA1{r(A)p.r(G)p.r(U)p.r(U)p.r(C)p.r(U)p.r(G)p.r(U)p.r(G)p.r(A)p.r(U)p.r(G)p.r(U)p.r(A)p.r(C)p.r(C)p.r(C)p.r(U)p.r(A)p.d(T)p.d(T)}|RNA2{r(U)p.r(A)p.r(G)p.r(G)p.r(G)p.r(U)p.r(A)p.r(C)p.r(A)p.r(U)p.r(C)p.r(A)p.r(C)p.r(A)p.r(G)p.r(A)p.r(A)p.r(C)p.r(U)p.d(G)p.d(G)}$$$RNA1{StrandType:ss}|RNA2{StrandType:as}$” was run?
Answer: 116%

Question: With “RNA1{r(A)p.r(G)p.r(U)p.r(U)p.r(C)p.r(U)p.r(U)p.r(C)p.r(G)p.r(G)p.r(U)p.r(U)p.r(U)p.r(G)p.r(C)p.r(C)p.r(G)p.r(G)p.r(A)p.d(T)p.d(T)}|RNA2{r(U)p.r(C)p.r(C)p.r(G)p.r(G)p.r(C)p.r(A)p.r(A)p.r(A)p.r(C)p.r(C)p.r(G)p.r(A)p.r(A)p.r(G)p.r(A)p.r(A)p.r(C)p.r(U)p.d(T)p.d(C)}$$$RNA1{StrandType:ss}|RNA2{StrandType:as}$” as the substance, how does the normalised inhibition (eCFP-eYFP dual reporter) read?
Answer: 53.8%

Question: “RNA1{r(A)p.r(U)p.r(C)p.r(U)p.r(U)p.r(A)p.r(G)p.r(G)p.r(A)p.r(A)p.r(A)p.r(U)p.r(U)p.r(U)p.r(U)p.r(A)p.r(C)p.r(C)p.r(U)p.d(T)p.d(T)}|RNA2{r(A)p.r(G)p.r(G)p.r(U)p.r(A)p.r(A)p.r(A)p.r(A)p.r(U)p.r(U)p.r(U)p.r(C)p.r(C)p.r(U)p.r(A)p.r(A)p.r(G)p.r(A)p.r(U)p.d(A)p.d(A)}$$$RNA1{StrandType:ss}|RNA2{StrandType:as}$” was tested. Which normalised inhibition (eCFP-eYFP dual reporter) did it give?
Answer: 79.6%
